Assay results from article PMC4669685, “Peptides derived from the dependence receptor ALK are proapoptotic for ALK-positive tumors” (Cell Death & Disease, 2015).
Where a SMILES comes first, the peptide text is derived from it. The star is where a group is joined. Myristoyl = CCCCCCCCCCCCCC(=O)*

What was measured:
Format in all cases: cell-based, human
[1] = system: Cost ALCL cells (NPM–ALK); experiment: Cell viability assay (CellTiterGlo, ATP content); conditions: increasing doses, 48 h
Experimental: (§1) At the end of incubation, cell viability was assessed by measuring the ATP content of wells using the luminescence-based CellTiterGlo assay (Promega) with a Berthold Mithras (http://www.berthold.com) plate reader. Each culture condition was assayed in triplicate.

[2] = system: caspase 3 in Cost cells; experiment: Western blot of caspase 3 cleavage; conditions: Cost cells treated 6 h; P36 10 μM, doxorubicin 2 μM; compared with culture medium
Experimental: Cells were washed once with PBS, pelleted, and extracted in RIPA buffer (150 mM NaCl, 20 mM Tris-HCl, pH 7.7, 4 mM EDTA, 0.5% Triton X-100) containing 10 μg/ml leupeptin, 2 μg/ml aprotinin, 1 mM 4-2-aminoethyl-benzenesulfonyl fluoride, 1 mM sodium orthovanadate, and 4 mM sodium fluoride for 30 min on ice. Cell extracts were either centrifuged at 10 000 × g for 20 min at 4 °C and the supernatant recovered, or sonicated for better extraction of nuclear proteins. The protein content was quantified using the Bio-Rad (www.biorad.com) Bradford protein assay. For western blotting, total cell proteins were subjected to SDS-polyacrylamide gel electrophoresis (SDS-PAGE) in a 4–12% bis/tris acrylamide (Novex NuPAGE, Invitrogen) gradient gel using the Nupage system with Mops SDS buffer under reducing conditions and transferred for 3 h at 60 V onto a nitrocellulose membrane. The blots were hybridized with the following primary antibodies:
ZAL4 anti-human ALK rabbit monoclonal antibody (1/200, Invitrogen), phospho-ALK (Y1604) (1/1000, #3341, Cell Signaling Technology, www.cellsignal.com) rabbit antiserum, mouse monoclonal anti-caspase 3 (1/200, sc-7148, Santa Cruz Biotechnologies, www.scbt.com), rabbit polyclonal anti-p53 (1/500, #554167, BD Pharmingen, www.bdbiosciences.com) and rabbit polyclonal anti-GAPDH (1/2000, Millipore, www.millipore.com) antibodies. […]

[3] = system: SH-SY5Y neuroblastoma cells (ALK-F1174L); experiment: Cell viability assay (CellTiterGlo, ATP content); conditions: increasing doses, 48 h
Experimental: as §1

Compound	effect on cell viability (cytotoxicity) [1]	caspase 3 cleavage (western blot) [2]	effect on cell viability (cytotoxicity) [3]
CCCCCCCCCCCCCC(=O)N[C@@H](CO)C(=O)N[C@@H](CO)C(=O)N[C@H](C(=O)N[C@@H](CO)C(=O)N[C@@H](CC(=O)O)C(=O)N[C@@H](CC(C)C)C(=O)N[C@@H](CCCCN)C(=O)N[C@@H](CCC(=O)O)C(=O)N[C@H](C(=O)N1CCC[C@H]1C(=O)N[C@@H](CCCNC(=N)N)C(=O)N[C@@H](CCCCN)C(N)=O)C(C)C)[C@@H](C)CC [P12-3] (Myristoyl-SSISDLKEVPRK-NH2)	dose-dependent cytotoxicity	–	–
CCCCCCCCCCCCCC(=O)N[C@@H](CC(N)=O)C(=O)N[C@H](C(=O)N[C@H](C(=O)N[C@@H](CC(C)C)C(=O)N[C@H](C(=O)N[C@@H](CCCNC(=N)N)C(=O)NCC(=O)N[C@@H](CC(C)C)C(=O)NCC(=O)N[C@@H](Cc1c[nH]cn1)C(=O)NCC(=O)N[C@@H](C)C(N)=O)[C@@H](C)CC)[C@@H](C)O)[C@@H](C)CC [P12-5] (Myristoyl-NITLIRGLGHGA-NH2)	dose-dependent cytotoxicity	–	–
COc1cccc2c1C(=O)c1c(O)c3c(c(O)c1C2=O)C[C@@](O)(C(=O)CO)C[C@@H]3O[C@H]1C[C@H](N)[C@H](O)[C@H](C)O1 [doxorubicin]	–	increased caspase 3 cleavage	–
CCCCCCCCCCCCCC(=O)N[C@@H](CCCCN)C(=O)N[C@@H](CCC(=O)O)C(=O)N[C@H](C(=O)N1CCC[C@H]1C(=O)N[C@@H](CCCNC(=N)N)C(=O)N[C@@H](CCCCN)C(=O)N[C@@H](CC(N)=O)C(=O)N[C@H](C(=O)N[C@H](C(=O)N[C@@H](CC(C)C)C(=O)N[C@H](C(=O)N[C@@H](CCCNC(=N)N)C(N)=O)[C@@H](C)CC)[C@@H](C)O)[C@@H](C)CC)C(C)C [P12-4] (Myristoyl-KEVPRKNITLIR-NH2)	no effect	–	–
CCCCCCCCCCCCCC(=O)N[C@@H](CC(=O)O)C(=O)N[C@@H](Cc1ccc(O)cc1)C(=O)N[C@@H](CC(N)=O)C(=O)N1CCC[C@H]1C(=O)N[C@@H](CC(N)=O)C(=O)N[C@@H](Cc1ccc(O)cc1)C(=O)N[C@@H](CS)C(=O)N[C@@H](Cc1ccccc1)C(=O)N[C@@H](C)C(=O)NCC(=O)N[C@@H](CCCCN)C(=O)N[C@H](C(N)=O)[C@@H](C)O [P12-1] (Myristoyl-DYNPNYCFAGKT-NH2)	no effect	–	–
CCCCCCCCCCCCCC(=O)N[C@@H](CCC(=O)O)C(=O)NCC(=O)N[C@@H](CC(C)C)C(=O)N[C@@H](CC(C)C)C(=O)N[C@@H](Cc1ccccc1)C(=O)N[C@H](C(=O)N[C@@H](Cc1ccc(O)cc1)C(=O)N[C@@H](Cc1c[nH]cn1)C(=O)N[C@H](C(=O)N[C@H](C(=O)N[C@@H](CCCCN)C(=O)N[C@@H](CCCNC(=N)N)C(=O)N[C@@H](CC(=O)O)C(=O)N[C@@H](Cc1ccc(O)cc1)C(=O)NCC(=O)N[C@@H](CC(N)=O)C(=O)N[C@@H](CC(N)=O)C(=O)N[C@@H](CC(C)C)C(=O)N[C@@H](C)C(=O)N[C@@H](CC(=O)O)C(=O)N[C@@H](CO)C(=O)N[C@H](C(=O)NCC(=O)N1CCC[C@H]1C(=O)NCC(=O)N[C@@H](CC(N)=O)C(=O)N[C@H](C(=O)N[C@@H](CO)C(=O)N[C@@H](C)C(=O)N1CCC[C@H]1C(=O)N[C@@H](CO)C(=O)N[C@H](C(=O)N[C@@H](CS)C(=O)N[C@@H](CCCCN)C(=O)N[C@@H](CCCNC(=N)N)C(=O)N[C@@H](CCCCN)C(N)=O)[C@@H](C)CC)[C@@H](C)O)[C@@H](C)CC)[C@@H](C)O)C(C)C)[C@@H](C)CC [P36scr] (Myristoyl-EGLLFIYHVTKRDYGNNLADSIGPGNTSAPSICKRK-NH2)	failed to affect	–	failed to affect
